# In patent publication US20080108669A1, “Use 541” (AstraZeneca AB, priority 2006, published 2008):
# Columns and labels:
# human Trk A kinase = biological target: T1, human Trk A kinase (Homo sapiens, UniProt P04629); assay: Trk A kinase assay (Alphascreen); assay type: biochemical; conditions: human Trk A intracellular domain, 70 μM ATP, 20 minutes, room temperature; read-out: IC50 (Trk inhibitory activity)
# T1 construct: HIS; made in house; host or cells: SF9 insect cells
# Experimental: Trk A kinase activity was measured for its ability to phosphorylate synthetic tyrosine residues within a generic polypeptide substrate using an Amplified Luminescent Proximity Assay (Alphascreen) technology (PerkinElmer, 549 Albany Street, Boston, Mass.).
# To measure Trk A kinase activity, the intracellular domain of a HIS-tagged human Trk A kinase (amino acids 442-796 of Trk A, Swiss-Prot Primary Accession Number P04629) was expressed in SF9 cells and purified using standard nickel column chromatography. After incubation of the kinase with a biotinylated substrate and adenosine triphosphate (ATP) for 20 minutes at room temperature, the kinase reaction was stopped by the addition of 30 mM ethylenediaminetetraacetic acid (EDTA). The reaction was performed in 384 well microtitre plates and the reaction products were detected with the addition of strepavidin coated Donor Beads and phosphotyrosine-specific antibodies coated Acceptor Beads using the EnVision Multilabel Plate Reader after an overnight incubation at room temperature.
# [1] = tested on: carrageenan-induced monoarthritis in rat; assay: Monoarthritis induced by carrageenan, Paw Print setup (hindpaw weight distribution, "Walking pain"); assay type: in vivo; conditions: for hindpaw weight distribution (difference in percent weight-bearing between the two hind paws), mean ±SEM: four hours after administration (five hours after carrageenan), vehicle group 39.0±2.1%, n=8
# Experimental: One single injection of carrageenan directly into the rat knee joint produces symptoms peaking at 3 to 4 hours and lasting for one to two days, and which are sensitive to treatment by most anti-nociceptive drugs (Tonussi and Ferreira, Pain 1992, 48, 421-427).
# Under isoflurane anesthesia, 50 μL of carrageenan (7.5 mg/mL) was injected into the left tibio-tarsal (ankle) joint from the dorsal side. This injection causes a localized inflammation increasing to a maximum between 4 h to 8 h after induction, after which it gradually decreases, and the animals display decreased weight bearing on and guarding of the limb.
# The Paw Print walkway consists of a 100×10 cm path with an access point at one short end and an exit at the other, and the rats are trained to make a swift, continuous passage. The walkway has a glass floor where light is projected into one long edge via fiber optics. Projecting the light in this fashion allows for virtually complete internal reflection within the glass floor. Only where an object touches the glass, such as the placement of a rat paw, light is scattered at the point of contact and produces an illuminated print (Betts, Duckworth, Eng. Med. 1978, 7, 223-228) that is recorded by a wide-angle camera placed under the walkway. The light intensity (range 0-255) of the illumination depends on the degree of contact against the floor and increases with the applied pressure (Clarke, Physiology & Behavior 1995, 58, 415-419). The Paw Print setup is a modified version of the CatWalk introduced by Hamers, Lankhorst, van Laar, Veldhuis, Gispen (J. Neurotrauma 2001, 18, 187-201), and has a computerized gait detection algorithm extracting several parameters pertaining to the rat's gait pattern and weight-bearing.
# The animals were trained to cross the walkway twice, one and two days before induction of monoarthritis. Recordings were subsequently made on the day of testing, immediately before, and three and five hours after carrageenan injection, corresponding to two and four hours after per oral administration of test compound. The following parameters were used for analysis:
# Weight-bearing per paw=The total sum of maximum light intensities for all pixels in the print of one paw is multiplied by the number of pixels of the print area. A paw placement consists of a number of pixels with light intensity above a certain threshold value (80 in this study). During the time course of one paw placement, a maximum value of light intensity is recorded for each pixel.
# Based on the weight-bearing results, the Paw Print algorithm chooses the median print per paw in one walkway crossing. The median weight-bearing of each paw constitutes a percentage of the sum of all four paws' median weight-bearing results. The difference in percent weight-bearing between the two hind paws is shown (“Walking pain”).
# The test compounds were administered 60 min after induction of monoarthritis.
# Results were analysed using 1-Way ANOVA followed by Newman-Keuls for comparison between treatment groups for data obtained at each time-point after administration. The level of significance was set at p<0.05 (SigmaStat® 2.03).
# T1 sequence (P04629 442-796): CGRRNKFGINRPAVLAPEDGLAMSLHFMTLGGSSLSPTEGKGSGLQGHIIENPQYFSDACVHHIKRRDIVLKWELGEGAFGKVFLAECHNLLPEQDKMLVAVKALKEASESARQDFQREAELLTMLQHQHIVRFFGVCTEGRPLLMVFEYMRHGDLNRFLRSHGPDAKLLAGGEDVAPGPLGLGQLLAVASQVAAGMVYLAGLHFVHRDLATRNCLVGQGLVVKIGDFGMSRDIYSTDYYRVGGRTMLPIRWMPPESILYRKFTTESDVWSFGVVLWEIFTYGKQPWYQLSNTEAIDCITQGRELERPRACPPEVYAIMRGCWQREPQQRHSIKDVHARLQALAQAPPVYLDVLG
compound,measurement,setting,value
C[C@H](Nc1nc(Nc2cc(C3CC3)[nH]n2)c(F)cc1CNC(=O)C1CCC(=O)N1)c1ccc(F)cc1 (stereo partly drawn) [N-((6-(5-Cyclopropyl-1H-pyrazol-3-ylamino)-5-fluoro-2-((S)-1-(4-fluorophenyl)ethylamino)pyridin-3-yl)methyl)-5-oxopyrrolidine-2-carboxamide],IC50,human Trk A kinase,109 nM
CC(C)Oc1cc(Nc2nc(N[C@@H](C)c3ccc(F)cn3)c(C#N)cc2F)n[nH]1 [(S)-5-Fluoro-2-(1-(5-fluoropyridin-2-yl)ethylamino)-6-(5-isopropoxy-1H-pyrazol-3-ylamino)nicotinonitrile],"hindpaw weight distribution (difference in percent weight-bearing between the two hind paws), mean ±SEM",[1]; 50 μmol/kg per oral,24.6±4.3%
same,"hindpaw weight distribution (difference in percent weight-bearing between the two hind paws), mean ±SEM",[1]; 100 μmol/kg per oral,27.6±3.3%
same,"hindpaw weight distribution (difference in percent weight-bearing between the two hind paws), mean ±SEM",[1]; 200 μmol/kg per oral,18.4±3.2%
same,effect on hindpaw weight distribution vs vehicle (p<0.05),"[1]; four hours after per oral administration, all doses tested: 50, 100 and 200 μmol/kg",significantly reduced
same,effect on hindpaw weight distribution vs vehicle (p<0.05),"[1]; two hours after per oral administration, 50, 100 and 200 μmol/kg",not at two hours
"C[C@H](Nc1ccc([N+](=O)[O-])c(Nc2cc(C3CC3)[nH]n2)n1)c1ccc(F)cc1 [(S)-N^2-(5-Cyclopropyl-1H-pyrazol-3-yl)-N^6-(1-(4-fluorophenyl)ethyl)-3-nitropyridine-2,6-diamine]",IC50,human Trk A kinase,63 nM
"C[C@H](Nc1nc(Nc2cc(C3CC3)[nH]n2)c(Cl)cc1Cl)c1ccc(F)cc1 [(S)-3,5-Dichloro-N^2-(5-cyclopropyl-1H-pyrazol-3-yl)-N^6-(1-(4-fluoro-phenyl)ethyl)pyridine-2,6-diamine]",IC50,human Trk A kinase,611 nM
